Measured values from US20240277716A1, “Suppressive T Cell Populations and Methods of Cancer Immunotherapy” (La Jolla Institute for Immunology, priority 2021, published 2024).

Tests used:
[1] = system: patients with resectable head and neck squamous cell carcinoma (HNSCC); format: in vivo, human
Source text: PI3Kδ inhibition causes irAEs. To evaluate the potential for PI3Kδ inhibitors as immunotherapeutic agents in human solid cancers, the inventors administered the PI3Kδi AMG319 to treatment-naive patients with resectable head and neck squamous cell carcinoma (HNSCC) in a neoadjuvant, double-blind, placebo-controlled randomized phase II trial. The inventors measured target inhibition (pAKT levels in B cells and drug levels to verify drug administration. Thirty-three patients were randomized in a 2:1 ratio (AMG319:Placebo) to the trial and 30 patients received at least one dose of AMG319 or placebo. Fifteen patients received 400 mg daily of AMG319 (range of 7-24 days per patient). Unexpectedly, at the 400 mg dose, 9/15 patients experienced irAEs that lead to withdrawal of treatment. After a formal safety review, 6 additional patients were recruited and treated at a reduced dose of 300 mg per day. Again, 3/6 patients had irAEs that led to discontinuation of treatment. One patient experienced grade 4 colitis after completion of 24 daily doses of AMG319 and eventually required colectomy (FIG. 4A). The most prevalent irAEs were skin rashes (29%; 25% observed in the treatment group and 4% in placebo group), diarrhea (29%; 28% in observed treatment group and 1% in placebo group) and transaminitis (14% all in the treatment group), consistent with a treatment-mediated loss of TREG cells or TREG cell functionality in multiple tissues causing immunopathology.
Double blind, randomized clinical trial and sample collection. In order to explore the immunomodulatory effects of PI3Kδ inhibition in humans, the inventors conducted a multicenter, placebo-controlled phase II neoadjuvant trial with the PI3Kδi AMG319 in resectable HNSCC, www.clinicaltrialsregister.eu/ctr-search/trial/2014-004388-20/results). All patients have provided written informed consent for participation in the clinical trial. The inventors studied Human Papilloma Virus (HPV)-negative HNSCC, as this cancer type is more prevalent, and because patients with this cancer type have poorer outcomes when compared to HPV-positive HNSCC, likely due to overall lower tumor-infiltrating lymphocyte (TIL) infiltration^31-33. The clinical trial was sponsored by Cancer Research UK Center for Drug Development (CRUKD/15/004) and approved by the Southampton and South West Hampshire Research Ethics Board; the trial EudraCT number is 2014-004388-20. Detailed information about the trial design, randomization procedure, protocol amendments, recruitment data, patient characteristics and adverse events are deposited at www.clinicaltrialsregister.eu/ctr-search/trial/2014-004388-20/results #morelnformationSection and found in the CONSORT checklist. Patients were recruited after initial diagnosis and before definitive surgical treatment; drug treatment or placebo was given for up to 24 or 28 days respectively, prior to resection of tumor. […] The inventors reasoned that high-grade irAEs were unlikely to occur during the shorter treatment duration in the neoadjuvant setting, and therefore selected 400 mg/day as the starting dose. The intended time from initiating treatment with AMG319 or placebo to surgical resection of tumor was up to 4 weeks, with weekly blood draws. The full evaluation of radiological measurements has previously been reported at https://www.clinicaltrialsregister.eu/ctr-search/trial/2014-004388-20/results to the EU Clinical Trials Register in compliance with regulatory requirements. Primary endpoints were safety and assessment of CD8^+ immune infiltrates, secondary endpoints tumor responses and AMG319 pharmacokinetic evaluation (https://www.clinicaltrialsregister.eu/ctr-search/trial/2014-004388-20/results#endPointsSection). The sample size was calculated as follows: in a pilot cohort, the CD8 count in the biopsy taken at diagnosis, and in the resected tissue sample was quantified. […]

[2] = system: tumor-infiltrating TREG cells and CD8+ T cells in HNSCC tumor tissue; assay: Phase II trial: tumor RNA-seq, sorted CD8+ T cell RNA-seq and FOXP3 immunohistochemistry, pre- vs post-treatment; format: in vivo, human
Source text: Double blind, randomized clinical trial and sample collection. In order to explore the immunomodulatory effects of PI3Kδ inhibition in humans, the inventors conducted a multicenter, placebo-controlled phase II neoadjuvant trial with the PI3Kδi AMG319 in resectable HNSCC, www.clinicaltrialsregister.eu/ctr-search/trial/2014-004388-20/results). All patients have provided written informed consent for participation in the clinical trial. The inventors studied Human Papilloma Virus (HPV)-negative HNSCC, as this cancer type is more prevalent, and because patients with this cancer type have poorer outcomes when compared to HPV-positive HNSCC, likely due to overall lower tumor-infiltrating lymphocyte (TIL) infiltration^31-33. The clinical trial was sponsored by Cancer Research UK Center for Drug Development (CRUKD/15/004) and approved by the Southampton and South West Hampshire Research Ethics Board; the trial EudraCT number is 2014-004388-20. Detailed information about the trial design, randomization procedure, protocol amendments, recruitment data, patient characteristics and adverse events are deposited at www.clinicaltrialsregister.eu/ctr-search/trial/2014-004388-20/results #morelnformationSection and found in the CONSORT checklist. Patients were recruited after initial diagnosis and before definitive surgical treatment; drug treatment or placebo was given for up to 24 or 28 days respectively, prior to resection of tumor. […] The inventors reasoned that high-grade irAEs were unlikely to occur during the shorter treatment duration in the neoadjuvant setting, and therefore selected 400 mg/day as the starting dose. The intended time from initiating treatment with AMG319 or placebo to surgical resection of tumor was up to 4 weeks, with weekly blood draws. The full evaluation of radiological measurements has previously been reported at https://www.clinicaltrialsregister.eu/ctr-search/trial/2014-004388-20/results to the EU Clinical Trials Register in compliance with regulatory requirements. Primary endpoints were safety and assessment of CD8^+ immune infiltrates, secondary endpoints tumor responses and AMG319 pharmacokinetic evaluation (https://www.clinicaltrialsregister.eu/ctr-search/trial/2014-004388-20/results#endPointsSection). The sample size was calculated as follows: in a pilot cohort, the CD8 count in the biopsy taken at diagnosis, and in the resected tissue sample was quantified. The mean value at diagnosis was 25 cells/high power filed (hpf), and this remained almost the same in the resected sample (26 cells/hpf). […] To detect a standardized difference of 0.5 with 80% power and one-sided test of statistical significance of 20%, 36 patients were randomized to AMG319 and 18 to placebo (54 in total). Randomization was at the level of the individual patient, using block randomization with randomly varying block sizes. During the course of the clinical trial the randomization list was held by the unblinded Trial Statistician and within the IWRS. Patients and care providers were blinded to the treatment allocation, and all immunological evaluations were completed by a pathologist and researchers who were blinded to the patient allocation to treatment arms. […] Patients were eligible if they were >18 years, with histologically proven HNSCC for whom surgery was the primary treatment option, with laboratory results within specified ranges. […]

[3] = system: circulating TREG cells; assay: Phase II trial: circulating TREG cells; parameters: species or system human; settings: in vivo
Source text: Double blind, randomized clinical trial and sample collection. In order to explore the immunomodulatory effects of PI3Kδ inhibition in humans, the inventors conducted a multicenter, placebo-controlled phase II neoadjuvant trial with the PI3Kδi AMG319 in resectable HNSCC, www.clinicaltrialsregister.eu/ctr-search/trial/2014-004388-20/results). All patients have provided written informed consent for participation in the clinical trial. The inventors studied Human Papilloma Virus (HPV)-negative HNSCC, as this cancer type is more prevalent, and because patients with this cancer type have poorer outcomes when compared to HPV-positive HNSCC, likely due to overall lower tumor-infiltrating lymphocyte (TIL) infiltration^31-33. The clinical trial was sponsored by Cancer Research UK Center for Drug Development (CRUKD/15/004) and approved by the Southampton and South West Hampshire Research Ethics Board; the trial EudraCT number is 2014-004388-20. […] The sample size was calculated as follows: in a pilot cohort, the CD8 count in the biopsy taken at diagnosis, and in the resected tissue sample was quantified. […]

[4] = system: heavily-pretreated patients with either CLL or non-Hodgkin lymphoma; settings: cited from earlier work

## C[C@H](Nc1ncnc2[nH]cnc12)c1cc2ccc(F)cc2nc1-c1ccccn1 [AMG319]
[1]; 23 evaluable patients, AMG319 vs placebo
  difference in measured tumor volumes between the study arms: did not observe any significant differences
[1]; AMG319-treated, all also grade 3/4 irAEs
  patients with partial responses (PR): Two
[1]; AMG319-treated, also grade 3/4 irAEs
  patients with complete pathological response: one
[1]; human, in vivo
  diarrhea observed in the treatment group: 28%
  median time to onset of irAEs: 9 days
  skin rashes observed in the treatment group: 25%
  transaminitis: 14%
[1]; in vivo
  patients with grade 4 colitis, eventually required colectomy: One
[2]; post-treatment samples, bulk RNA-seq
  expression of IFNG, GZMB and PRF1 in sorted tumor-infiltrating CD8+ T cells: higher expression
[2]; post-treatment vs remaining samples
  differentially expressed genes, sorted CD8+ T cells: 455 genes
[2]; pre- vs post-treatment
  FOXP3 transcript levels in the tumor samples: significant reduction
[2]; pre- vs post-treatment tumor samples
  differentially-expressed genes, whole tumor RNA-seq: 93 DEGs
[2]; short interval between stopping treatment and assessment
  intratumoral TREG cells (FOXP3+ cells, immunohistochemistry): significantly reduced
[3]
  activated circulating TREG cells: significant increase
[4]; daily dosing with 400 mg
  nodal regression: > 50%
  target inhibition (BCR-induced pAKT in ex vivo IgD-stimulated CLL samples): near-complete target inhibition
[4]; doses of up to 400 mg explored
  maximally-tolerated dose: without reaching a maximally-tolerated dose
[4]; human plasma
  mean half-life in plasma: 3.8 to 6.6 h
[4]; in vivo
  occurrence of irAE at grade 3 or above (CTC): after days 40 and 60
